Assay results: PMC4878759 (PLoS ONE, 2016)

Experiments:
[1] = test system: VRAC; assay: VRAC activity by YFP quenching in LN215 cells; assay type: cell-based, human; details: 10 μM
Experimental: LN215 cells, a human glioma cell line, were stably transfected with YFP-F46L/H148Q/I152L, a halide sensor YFP. After the cells were incubated on 96well black plates (Corning Inc., Corning, NY) for 48 hours, each well of the 96-well plate was washed 3 times in PBS (200 μL/wash), and the wells were filled with 50 μl/well isotonic solution (in mM): 140 NaCl, 5 KCl, 20 HEPES (310 mOsm/kg; pH 7.4 with NaOH). In each well, VRAC expressed on the cells were stimulated with addition of 50 μl of hypotonic solutions (in mM): 5 KCl, 20 HEPES, 90 mannitol (120 mOsm/kg). Test compounds (1 μL) were added to each well in a dose dependent manner. After 5 min, 96-well plates were transferred to a plate reader for fluorescence assay. Each well was assayed individually for VRAC-mediated I^- influx by recording fluorescence continuously (400 ms per point) for 7.6 s. YFP fluorescence was recorded 0.4 s for baseline, then 100 μL of 140 mM I^- solution was added at 0.4 s to see the change in fluorescence. Initial iodide influx rate was determined from the initial slope of fluorescence decrease, by nonlinear regression, following infusion of iodide.

[2] = test system: ANO1; design: method as in PMID 25739000; details: spontaneously hypertensive rats (SHRs) ref [8]; cited from earlier work
[3] = biological target: T1, mouse ANO2 (Mus musculus, UniProt Q8CFW1); assay: YFP quenching assay in FRT cells expressing ANO2; assay type: cell-based; details: dose dependent, 100 μM ATP
T1 sequence (Q8CFW1 1-1002): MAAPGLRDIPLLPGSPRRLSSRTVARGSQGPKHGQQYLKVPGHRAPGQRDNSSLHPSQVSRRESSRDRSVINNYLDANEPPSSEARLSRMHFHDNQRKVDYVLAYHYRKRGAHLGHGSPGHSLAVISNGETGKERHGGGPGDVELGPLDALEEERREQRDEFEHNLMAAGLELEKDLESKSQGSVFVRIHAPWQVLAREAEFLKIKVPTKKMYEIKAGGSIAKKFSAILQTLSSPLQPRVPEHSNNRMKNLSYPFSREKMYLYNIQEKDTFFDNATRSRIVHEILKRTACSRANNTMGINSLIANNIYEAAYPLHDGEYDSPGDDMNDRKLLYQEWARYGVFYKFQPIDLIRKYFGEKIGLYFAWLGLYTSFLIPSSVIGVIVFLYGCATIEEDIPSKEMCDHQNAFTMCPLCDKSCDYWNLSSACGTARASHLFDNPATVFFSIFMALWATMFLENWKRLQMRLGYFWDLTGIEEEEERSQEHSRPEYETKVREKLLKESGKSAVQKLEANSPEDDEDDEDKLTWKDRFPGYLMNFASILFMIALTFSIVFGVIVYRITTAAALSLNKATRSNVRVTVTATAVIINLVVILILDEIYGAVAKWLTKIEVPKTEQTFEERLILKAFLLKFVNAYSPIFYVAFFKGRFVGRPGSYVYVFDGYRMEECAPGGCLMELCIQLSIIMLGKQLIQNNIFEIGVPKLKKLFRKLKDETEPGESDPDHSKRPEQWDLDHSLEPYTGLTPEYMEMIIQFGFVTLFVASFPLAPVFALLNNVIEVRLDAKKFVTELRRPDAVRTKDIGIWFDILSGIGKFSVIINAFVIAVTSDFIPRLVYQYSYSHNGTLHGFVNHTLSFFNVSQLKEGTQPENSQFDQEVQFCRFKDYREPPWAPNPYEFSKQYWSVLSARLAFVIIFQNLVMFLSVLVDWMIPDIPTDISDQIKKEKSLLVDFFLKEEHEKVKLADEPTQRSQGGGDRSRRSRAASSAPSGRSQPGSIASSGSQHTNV

[4] = test system: ANO1; design: method as in PMID 25848051; details: mice ref [14]; cited from earlier work
[5] = biological target: T2, ANO1 (Homo sapiens, UniProt Q5XXA6, DEL476-501); assay: Apical membrane current in ANO1 expressing FRT cells; assay type: cell-based; details: 100 μM ATP
T2 construct: expressed in transfected cells
T2 sequence (Q5XXA6 with tags, fused parts or gaps isoform Q5XXA6-5 DEL539-564): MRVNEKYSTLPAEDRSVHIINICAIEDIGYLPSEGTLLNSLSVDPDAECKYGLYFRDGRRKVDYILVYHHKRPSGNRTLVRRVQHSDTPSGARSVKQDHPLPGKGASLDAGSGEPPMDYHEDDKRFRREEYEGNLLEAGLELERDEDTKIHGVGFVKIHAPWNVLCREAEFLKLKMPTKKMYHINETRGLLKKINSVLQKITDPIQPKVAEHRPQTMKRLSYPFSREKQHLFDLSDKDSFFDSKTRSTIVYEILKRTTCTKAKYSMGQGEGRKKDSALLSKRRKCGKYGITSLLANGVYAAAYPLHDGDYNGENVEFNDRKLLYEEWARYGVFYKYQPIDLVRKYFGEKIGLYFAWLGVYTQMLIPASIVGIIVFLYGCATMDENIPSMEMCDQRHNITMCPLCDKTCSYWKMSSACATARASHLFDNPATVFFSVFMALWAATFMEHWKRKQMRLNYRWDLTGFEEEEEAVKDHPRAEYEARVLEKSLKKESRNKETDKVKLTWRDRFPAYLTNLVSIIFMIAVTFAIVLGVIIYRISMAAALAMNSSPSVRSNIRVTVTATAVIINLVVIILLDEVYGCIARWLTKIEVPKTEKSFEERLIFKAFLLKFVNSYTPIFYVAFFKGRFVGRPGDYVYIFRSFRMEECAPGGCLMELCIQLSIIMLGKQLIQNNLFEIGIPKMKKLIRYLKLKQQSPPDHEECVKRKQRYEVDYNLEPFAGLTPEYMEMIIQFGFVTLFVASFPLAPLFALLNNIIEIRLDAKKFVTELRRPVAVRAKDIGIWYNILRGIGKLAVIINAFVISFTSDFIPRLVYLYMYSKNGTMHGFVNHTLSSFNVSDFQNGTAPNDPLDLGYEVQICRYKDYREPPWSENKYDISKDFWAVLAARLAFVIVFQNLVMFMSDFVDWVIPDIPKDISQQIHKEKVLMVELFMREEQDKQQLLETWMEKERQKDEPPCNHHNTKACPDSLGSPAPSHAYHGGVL
Experimental: (§1) Snapwell inserts containing ANO1, ANO2 or CFTR expressing FRT cells, ENaC expressing T-84 cells or the human primary airway epithelial cells were mounted in Ussing chambers (Physiologic Instruments, San Diego, CA). To induce transcriptional ENaC induction, the polarized T84 cells were incubated with 2 mM sodium butyrate for 2 days. To increase the functional expression of ANO1, the human airway epithelial cells were treated with IL-4 (10 ng/mL) for 2 days. For T-84 and the human primary airway epithelial cells, the apical and basolateral bath were filled with HCO3^—buffered solution containing (in mM): 120 NaCl, 5 KCl, 1 MgCl2, 1 CaCl2, 10 D-glucose, 2.5 HEPES, and 25 NaHCO3 (pH 7.4). For FRT cells, the basolateral bath was filled with the HCO3^—buffered solution and the apical bath was filled with a half-Cl^- solution. In the half-Cl^- solution 65 mM NaCl in the HCO3^—buffered solution was replaced by Na-gluconate. […] ATP was applied to the apical bath solution to induce intracellular calcium increase. […] Apical membrane currents were measured with an EVC4000 Multi-Channel V/I Clamp (World Precision Instruments, Sarasota, FL) and PowerLab 4/35 (AD Instruments, Castle Hill, Australia). Data were analyzed using Labchart Pro 7 (AD Instruments). The sampling rate was 4 Hz.

[6] = biological target: T3, ANO2 (Mus musculus, UniProt Q8CFW1); assay: Apical membrane current in FRT-ANO2 cells; assay type: cell-based; details: 10 μM pretreatment
T3 sequence (Q8CFW1 1-1002): T1 sequence (Q8CFW1 1-1002)
Experimental: as §1
ANO1 belongs to anoctamin gene family which contains ten members presenting eight-pass transmembrane segments with cytosolic N- and C-terminals. ANO2 shares a high level of amino acid homology to ANO1 (~60%) and, ANO1 and ANO2 are confirmed CaCCs. However, the roles of other family members (ANO3-ANO10) remain poorly understood and controversial. […] We investigated the effect of these inhibitors on ANO2-mediated apical membrane current in FRT-ANO2 cells.

[7] = test system: VRAC; design: method as in PMID 24965069, PMID 25163766, PMID 26438191; details: ref [26]–[28]; cited from earlier work
[8] = biological target: T4, CaCCs in NHNE cells (Homo sapiens, UniProt Q5XXA6); assay: Short-circuit current of CaCC in IL-4 treated NHNE cells; assay type: cell-based; details: 100 μM
T4 sequence (Q5XXA6 1-986): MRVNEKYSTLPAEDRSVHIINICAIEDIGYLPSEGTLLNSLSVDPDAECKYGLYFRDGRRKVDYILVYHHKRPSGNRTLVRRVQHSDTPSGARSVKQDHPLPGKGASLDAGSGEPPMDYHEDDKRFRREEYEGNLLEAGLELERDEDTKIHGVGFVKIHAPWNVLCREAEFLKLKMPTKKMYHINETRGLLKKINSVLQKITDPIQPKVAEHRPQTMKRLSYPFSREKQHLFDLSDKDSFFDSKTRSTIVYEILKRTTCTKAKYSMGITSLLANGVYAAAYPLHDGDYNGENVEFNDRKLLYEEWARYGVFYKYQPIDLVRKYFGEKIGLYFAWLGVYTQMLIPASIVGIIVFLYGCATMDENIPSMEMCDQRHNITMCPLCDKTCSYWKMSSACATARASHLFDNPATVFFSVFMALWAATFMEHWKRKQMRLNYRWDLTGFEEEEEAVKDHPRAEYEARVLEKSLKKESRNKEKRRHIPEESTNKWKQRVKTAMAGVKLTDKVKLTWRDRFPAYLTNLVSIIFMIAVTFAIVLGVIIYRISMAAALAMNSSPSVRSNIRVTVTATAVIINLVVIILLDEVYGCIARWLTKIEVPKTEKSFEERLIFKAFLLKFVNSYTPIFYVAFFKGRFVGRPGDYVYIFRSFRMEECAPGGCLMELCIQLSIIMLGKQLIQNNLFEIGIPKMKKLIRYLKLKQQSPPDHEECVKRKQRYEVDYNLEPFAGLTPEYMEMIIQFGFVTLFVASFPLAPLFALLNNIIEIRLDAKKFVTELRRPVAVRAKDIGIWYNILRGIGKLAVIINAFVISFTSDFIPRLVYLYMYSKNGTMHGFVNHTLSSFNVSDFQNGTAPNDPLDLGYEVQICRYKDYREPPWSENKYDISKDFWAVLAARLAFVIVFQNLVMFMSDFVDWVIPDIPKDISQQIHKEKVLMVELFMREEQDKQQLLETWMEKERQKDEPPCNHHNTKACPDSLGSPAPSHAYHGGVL
Experimental: Snapwell inserts containing ANO1, ANO2 or CFTR expressing FRT cells, ENaC expressing T-84 cells or the human primary airway epithelial cells were mounted in Ussing chambers (Physiologic Instruments, San Diego, CA). To induce transcriptional ENaC induction, the polarized T84 cells were incubated with 2 mM sodium butyrate for 2 days. To increase the functional expression of ANO1, the human airway epithelial cells were treated with IL-4 (10 ng/mL) for 2 days. For T-84 and the human primary airway epithelial cells, the apical and basolateral bath were filled with HCO3^—buffered solution containing (in mM): 120 NaCl, 5 KCl, 1 MgCl2, 1 CaCl2, 10 D-glucose, 2.5 HEPES, and 25 NaHCO3 (pH 7.4). For FRT cells, the basolateral bath was filled with the HCO3^—buffered solution and the apical bath was filled with a half-Cl^- solution. In the half-Cl^- solution 65 mM NaCl in the HCO3^—buffered solution was replaced by Na-gluconate. […] ATP was applied to the apical bath solution to induce intracellular calcium increase. […] Apical membrane currents were measured with an EVC4000 Multi-Channel V/I Clamp (World Precision Instruments, Sarasota, FL) and PowerLab 4/35 (AD Instruments, Castle Hill, Australia). Data were analyzed using Labchart Pro 7 (AD Instruments). The sampling rate was 4 Hz. […]

Compound	inhibition of VRAC activity [1] [%]	effect on BP [2]	effect on ANO2 activity [3]	effect on capsaicin-evoked pain-related behaviors [4]	inhibition of ATP-induced ANO1 current ([5]; 10 μM pretreatment)	IC50 ([5]; apical membrane current, 20 min pretreatment, read-out: IC50 of ATP-induced ANO1 activation) [µM]	effect on ATP-induced ANO2 current [6]	block of VRAC activity [7]	effect on remaining CaCCs currents [8]
CCc1c(C)nc(SCC(=O)Nc2nc(-c3ccc(OC)cc3)cs2)[nH]c1=O [Ani T16Ainh-A01]	71.2 ± 1.6	significantly reduced	potently blocked	significantly reduced	almost complete inhibition	1.39 ± 0.59	strongly blocked	potently blocked	–
tannic acid	–	–	–	–	–	–	–	–	abolished
